Data: the supplement of paper PMC11208160

Test: recombinant UMI read abundance after kanamycin selection (control-corrected) (log10(CPM+1)); higher = more efficient recombination; extreme values may be limits of the assay; sequences stand for … in AGTGCAGAGAAAATCGGCCAGTTTTCTCTGCCTGCAGTCCGCATGCCGTGGGACCCCTTGGGTTCTAACCTGTTGCCTAGATTTATGCAGCGGACTGCCTTTCTCCCAAAGTGATAAACCGG…AGGTTGGTTTCACT; site = the 11-nt donor
Outline: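 Values are reported as log10(CPM+1), obtained by converting sequencing counts to CPM, averaging replicates and scaling by control-derived factors. The counts came from recombinant UMIs amplified by PCR across the donor–target junction. These UMIs came from a pooled Escherichia coli screen of donor and donor-binding-loop pairs for the IS621 bridge recombinase, plated with IPTG (0.07 mM) plus kanamycin or left unselected, in two replicates each.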
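Further: IS621 bridge recombinase in Escherichia coli cells against a fixed T5 target plasmid.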

Row | Sequence | recombinant UMI read abundance (log10)
1 | CGGGAGCCATGGACCGGTTTTCCCGGTAATCCGTATTTGAT (site CGGGACCCTAT) | 0.00515
2 | CGGGAGCCATGGACCGGTTTTCCCGGTAATCCGTATTTGAT (site CGGGAGCCTAT) | 0.266
3 | CGGGAGCCATGGACCGGTTTTCCCGGTAATCCGTATTTGAT (site CGGGATCCTAT) | 0.0423
4 | CGGGAGTCATGGACCGGTTTTCCCGGTAATCCGTATTTGCT (site CGGGAGTCTAG) | 2.6
5 | CGGGAGTCATGGACCGGTTTTCCCGGTAATCCGTATTTGCT (site CGGGAGTCTCG) | 2.06
6 | CGGGAGTCATGGACCGGTTTTCCCGGTAATCCGTATTTGCT (site CGGGAGTCTGG) | 2.26
7 | CGGGAGTCATGGACCGGTTTTCCCGGTAATCCGTATTTGCT (site CGGGAGTCTTG) | 1.47
8 | CGGGAGTCATGGACCGGTTTTCCCGGTAATCCGTATTTGTC (site CGGGAGTCTGA) | 3.19
9 | CGGGAGTCATGGACCGGTTTTCCCGGTAATCCGTATTTGTC (site CGGGAGTCTGC) | 1.37
10 | CGGGAGTCATGGACCGGTTTTCCCGGTAATCCGTATTTGTC (site CGGGAGTCTGG) | 2.03
11 | CGGGAGTCATGGACCGGTTTTCCCGGTAATCCGTATTTGTC (site CGGGAGTCTGT) | 1.9
12 | CGGGCAGCATGGACCGGTTTTCCCGGTAATCCGTATTTGTC (site CGGGCAGCTGA) | 1.93
13 | CGGGCCTCATGGACCGGTTTTCCCGGTAATCCGTATTTGTT (site CGGGCCTCTAA) | 2.54
14 | CGGGGGTCATGGACCGGTTTTCCCGGTAATCCGTATTTGCC (site CGGGAGTCTGG) | 0.865
15 | CGGGGGTCATGGACCGGTTTTCCCGGTAATCCGTATTTGCC (site CGGGCGTCTGG) | 1.7
16 | CGGGGGTCATGGACCGGTTTTCCCGGTAATCCGTATTTGCC (site CGGGGGTCTGG) | 1.86
17 | CGGGGGTCATGGACCGGTTTTCCCGGTAATCCGTATTTGCC (site CGGGTGTCTGG) | 0.6
18 | CGGGTACCATGGACCGGTTTTCCCGGTAATCCGTATTTGAT (site CGGGAACCTAT) | 0
19 | CGGGTACCATGGACCGGTTTTCCCGGTAATCCGTATTTGAT (site CGGGCACCTAT) | 0
20 | CGGGTACCATGGACCGGTTTTCCCGGTAATCCGTATTTGAT (site CGGGGACCTAT) | 0
21 | CGGGTACCATGGACCGGTTTTCCCGGTAATCCGTATTTGAT (site CGGGTACCTAT) | 0.00441
22 | CGGGTGTCATGGACCGGTTTTCCCGGTAATCCGTATTTGTT (site CGGGTGTCTAA) | 3.07
23 | CGGGTTGCATGGACCGGTTTTCCCGGTAATCCGTATTTGAG (site CGGGTTGCTCT) | 1.79
24 | CGGTACTCATGGACCGGTTTTCCCGGTAATCCGTATTTGGC (site CGGTACTCTGC) | 3.19
25 | CGGTAGCCATGGACCGGTTTTCCCGGTAATCCGTATTTGTT (site CGGAATCCTAA) | 0.00596
26 | CGGTAGCCATGGACCGGTTTTCCCGGTAATCCGTATTTGTT (site CGGTAGCCTAA) | 0.237

Row | Sequence | recombinant UMI read abundance (log10)
27 | CGGTCATCATGGACCGGTTTTCCCGGTAATCCGTATTTGCT (site CGATCATCTAG) | 1.07
28 | CGGTCATCATGGACCGGTTTTCCCGGTAATCCGTATTTGCT (site CGCTCATCTAG) | 0
29 | CGGTCATCATGGACCGGTTTTCCCGGTAATCCGTATTTGCT (site CGGACATCTAG) | 0
30 | CGGTCATCATGGACCGGTTTTCCCGGTAATCCGTATTTGCT (site CGGCCATCTAG) | 2.29
31 | CGGTCATCATGGACCGGTTTTCCCGGTAATCCGTATTTGCT (site CGGGCATCTAG) | 0
32 | CGGTCATCATGGACCGGTTTTCCCGGTAATCCGTATTTGCT (site CGGTCATCTAG) | 1.7
33 | CGGTCATCATGGACCGGTTTTCCCGGTAATCCGTATTTGCT (site CGTTCATCTAG) | 0.224
34 | CGGTCCGCATGGACCGGTTTTCCCGGTAATCCGTATTTGCG (site CGGTCCGCTCG) | 0.155
35 | CGGTCTTCATGGACCGGTTTTCCCGGTAATCCGTATTTGCT (site CGATCATCTAG) | 0
36 | CGGTCTTCATGGACCGGTTTTCCCGGTAATCCGTATTTGCT (site CGGTCTTCTAG) | 1.49
37 | CGGTGAGCATGGACCGGTTTTCCCGGTAATCCGTATTTGGA (site CGGTGAGCTTC) | 1.56
38 | CGGTGGACATGGACCGGTTTTCCCGGTAATCCGTATTTGGG (site CGGTGGACTCC) | 0.024
39 | CGTAACCCATGGACCGGTTTTCCCGGTAATCCGTATTTGGC (site CGTAACCCTGC) | 0.629
40 | CGTAACTCATGGACCGGTTTTCCCGGTAATCCGTATTTGTA (site CGTAACTCTTA) | 2.2
41 | CGTAAGACATGGACCGGTTTTCCCGGTAATCCGTATTTGCA (site AGGAAGACTTG) | 0
42 | CGTAAGACATGGACCGGTTTTCCCGGTAATCCGTATTTGCA (site CGTAAGACTTG) | 2.68
43 | CGTAATACATGGACCGGTTTTCCCGGTAATCCGTATTTGGC (site CATAATACTGC) | 0
44 | CGTAATACATGGACCGGTTTTCCCGGTAATCCGTATTTGGC (site CCTAATACTGC) | 0
45 | CGTAATACATGGACCGGTTTTCCCGGTAATCCGTATTTGGC (site CGTAATACTGC) | 1.22
46 | CGTAATACATGGACCGGTTTTCCCGGTAATCCGTATTTGGC (site CTTAATACTGC) | 0
47 | CGTAATACATGGACCGGTTTTCCCGGTAATCCGTATTTGTT (site CGGAATCCTAA) | 0
48 | CGTAATACATGGACCGGTTTTCCCGGTAATCCGTATTTGTT (site CGTAATACTAA) | 0.809
49 | CGTATAACATGGACCGGTTTTCCCGGTAATCCGTATTTGAT (site CGTATAACTAT) | 0.94
50 | CGTCATGCATGGACCGGTTTTCCCGGTAATCCGTATTTGAC (site CGTCATGCTGT) | 1.2
51 | CGTCTTTCATGGACCGGTTTTCCCGGTAATCCGTATTTGCA (site CGTCTTTCTTG) | 0
52 | CGTGAAACATGGACCGGTTTTCCCGGTAATCCGTATTTGTT (site CGTGAAACTAA) | 1.61
